Among the data in PubChem BioAssay (NCI) are TGI and GI50 values, retold here.

Assay in all cases: NCI anticancer screen, dose series, 48 h
The subject of assay [1] is MOLT-4 leukemia.
In assay [2] the test system is UACC-62 melanoma.
The test system of assay [3] is LOX IMVI melanoma.
The test system of assay [4] is SF-268 CNS.
Assay [5] deals with SK-MEL-5 melanoma.
Assay [6] has as its system MCF7 breast.
The subject of assay [7] is NCI-H460 lung.
Assay [8] concerns NCI-H23 lung.
Assay [9] deals with SR leukemia.

Structures are written as SMILES.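 Cells were grown in 96-well plates and exposed to each compound for 48 hours at five concentrations; endpoints were interpolated linearly between bracketing concentrations, or set to the highest concentration if not reached. Abbreviation: GI50, concentration required for 50% inhibition of growth. TGI: concentration producing complete growth inhibition.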

Consider `Cc1oc2c(c1C)S(=O)(=O)C(C#N)=C(N(C)C)N2`, for which the TGI in assay [1], in assay [2], in [3], in assay [4], in assay [5] and in assay [6] was above 100 µM throughout. Also, the TGI in assay [7] and in [8] was above 100 µM throughout.
Take `COC1=CC(=O)CC(C)C12Oc1c(Cl)c(OC)cc(OC)c1C2=O` (stereo not given): the TGI in assay [1], in assay [2], in [3], in [4], in assay [5] and in assay [6] was above 100 µM throughout. Also, the TGI in assay [7] is above 100 µM; in assay [8], above 100 µM; in assay [9] it was above 28.2 µM.
Regarding `O=C1C(Cl)=C(N(C(=O)c2ccccc2)C(=O)c2ccccc2)C(=O)c2ccccc21`, the TGI in assay [1] is above 100 µM; in assay [2], 19.8 µM; in [3], above 100 µM; in [4], 21.7 µM; in assay [5], 12.4 µM; in assay [6], 24 µM. The TGI is 28.5 µM in [7], 31.1 µM in assay [8] and 81.2 µM in assay [9].
Take `O=C(Nc1cccc([N+](=O)[O-])c1)c1n[nH]n(-c2cccc([N+](=O)[O-])c2)c1=O`: the TGI in [1], in assay [2], in [3], in assay [4], in assay [5] and in assay [6] was above 100 µM in each case. Further, the TGI in [8] and in assay [9] was above 100 µM in each case.
Regarding `CCCCCCCCCCCCCCCCOP(=O)(O)OCC(N)C(=O)O` (stereo not given), the TGI in [1] is 29 µM; in [2], 37 µM; in assay [3], 28.2 µM; in assay [4], 41.6 µM; in assay [5] it was 32.6 µM; in assay [7], 51.8 µM. In addition, the results for the TGI in assay [8] and in [9] were 69.4 µM and 61.4 µM, respectively.
As for `Nc1[nH]nc2nc3ccccc3nc12`, the TGI in assay [1], in assay [2], in [3], in [4], in [5] and in assay [6] was above 100 µM in each case. For the same molecule, the TGI was above 100 µM in assay [7], above 100 µM in assay [8] and 75.2 µM in assay [9].
Regarding `COC1=CC2(CC(OC)=C1OC)OC21COc2ccccc2C1=O` (stereo not given), the TGI in [1], in assay [2], in [3], in [4], in assay [5] and in assay [6] was above 100 µM each time. Further, the TGI is above 100 µM in [7], above 100 µM in assay [8] and 89.7 µM in [9].
`Clc1cccc(NN=Nc2ccc(-c3nc4ccccc4s3)cc2)c1`: the TGI in [1] was 40.6 µM; in assay [2] it was 51.8 µM; in assay [3] it was above 100 µM; in assay [5], 74.9 µM; in [6] it was above 100 µM; in assay [7], above 100 µM. Moreover, the results for the TGI in assay [8] and in [9] were 63.3 µM and 43 µM, respectively.
For `Cn1c(CO)ccc1-c1ccc(-c2ccc[se]2)[se]1`, the TGI was 59.7 µM in assay [1]; above 100 µM in assay [3]; above 100 µM in assay [4]; above 90.2 µM in [5]; above 52.4 µM in [6]; above 100 µM in assay [7]. Also, the TGI was 50.7 µM in assay [8] and above 100 µM in assay [9].
Regarding `COc1ccc(C2C(C#N)=C(S)N(C3OC(COC(C)=O)C(OC(C)=O)C(OC(C)=O)C3OC(C)=O)C(c3ccccc3)=C2C(C)=O)cc1` (stereo not given), the TGI in assay [1], in [2], in assay [3], in [4], in assay [5] and in assay [6] was above 100 µM each time. The TGI in assay [7] and in assay [8] was above 100 µM in each case.
Consider `O=C(O)c1cnc(-n2[nH]c3c(c2=O)CCCC3)[nH]c1=O`, for which the TGI in [1], in assay [2], in [4], in assay [5], in [7] and in assay [8] was above 100 µM in each case. In assay [9], the TGI was above 100 µM.
As to `NC(CSSCC(N)=NCC12CC3CC(CC(C3)C1)C2)=NCC12CC3CC(CC(C3)C1)C2`, the TGI was 16.9 µM in [1]; 26.1 µM in [2]; above 100 µM in assay [4]; 36.5 µM in assay [5]; above 100 µM in [6]; above 100 µM in assay [7]. Further, the TGI in [8] is 32.3 µM.
Turning to `N=c1c2c(=S)n(-c3ccccc3)c(=S)n(-c3ccccc3)c2nc(SCCN2CCCC2)n1-c1ccccc1`, the TGI in [1] turned out to be 3.35 µM; in assay [2] it was 3.04 µM; in assay [3], 3.46 µM; in [4] it was 5.69 µM; in assay [5] it was 12.1 µM; in assay [7] it was 3.63 µM. Moreover, in assay [8], the TGI came out at 9.2 µM.
On to `C=C(C)COC1CCCCO1` (stereo not given), for which the TGI in assay [1], in assay [2], in assay [3], in assay [4], in assay [5] and in assay [6] was above 100 µM in each case. For the same molecule, the TGI in assay [7] and in assay [8] was above 100 µM in each case.
Consider `COC(=O)c1c(C#N)c(N)nc2c1CCC2`, for which the TGI in assay [1], in assay [2], in assay [3], in assay [4], in assay [5] and in assay [6] was above 100 µM throughout. Also, the TGI in [7] and in assay [8] was above 100 µM throughout.
As to `COc1cc(OC)c2c3c(OC)cc(OC)c4c(=O)c(O)c(C[C@@H](C)O)c(c5c(C[C@@H](C)O)c(O)c(=O)c1c25)c43`, the TGI in assay [1] was 39.4 µM; in assay [3] it was 35.3 µM; in assay [4] it was 70.4 µM; in assay [5], 28.4 µM; in assay [6], 48.6 µM; in assay [7], above 100 µM. The TGI in assay [8] turned out to be 40 µM.
In the case of `O=c1ccn(C2OC(CO)C(O)C2F)c(=O)n1Cc1ccccc1` (stereo not given), the TGI in [1], in assay [2], in assay [3], in assay [4], in [5] and in [6] was above 100 µM throughout. In addition, the TGI in assay [8] and in assay [9] was above 100 µM throughout.
For the molecule `Cc1cc(S(=O)(=O)Nc2nc3ccccc3nc2-c2ccc(Cl)cc2)c(S)cc1Cl`, the TGI in assay [1] is 42.2 µM; in assay [2], 25.4 µM; in [4] it was 35.3 µM; in assay [5] it was 27 µM; in assay [6] it was 34.1 µM; in [7] it was 29.4 µM. In addition, the TGI is 33.4 µM in assay [8] and 37.8 µM in [9].
With `COc1ccc(N=NC(=O)NC(CC(C)C)C(N)=O)cc1` (stereo not given), the TGI was above 100 µM in assay [1]; above 100 µM in assay [2]; above 100 µM in assay [4]; above 100 µM in [5]; above 31.6 µM in assay [6]; above 31.6 µM in assay [7]. For the same molecule, the TGI in assay [8] and in assay [9] was above 100 µM each time.
Regarding `CC1(C)CCC(C)(C)C1C(=O)NC(O)C(=O)O` (stereo not given), the TGI in assay [1], in assay [2], in [3], in assay [4], in assay [5] and in assay [6] was above 100 µM in each case. The TGI in [7] and in assay [9] was above 100 µM throughout.
On to `CC1CC/C(=C\c2ccc(F)cc2)C(=O)/C1=C/c1ccc(F)cc1` (stereo not given), for which the TGI was found to be 8.81 µM in assay [1]; 24.7 µM in assay [2]; 7 µM in assay [3]; 14.6 µM in [4]; 24.1 µM in assay [5]; 16.6 µM in assay [6]. The TGI in assay [8] was 25.5 µM.
With `NC1=Nc2cc(Cl)ccc2Sc2nc3ccccc3n21`, the TGI in assay [1], in assay [2], in assay [3], in [4], in assay [5] and in assay [6] was above 100 µM in each case. For the same molecule, the TGI in assay [7] and in assay [8] was above 100 µM throughout.
With `CC(C)(C)OC(=O)CN1CCNCCN(CC(=O)OC(C)(C)C)CCNCC1`, the TGI in assay [1], in assay [2], in assay [3], in [5], in assay [6] and in assay [7] was above 100 µM each time. In [9], the TGI is above 100 µM.
With `Cc1ccc(C(=O)Nc2ccc(CP(=O)(O)O)cc2CP(=O)(O)O)cc1NC(=O)Nc1cc(C(=O)Nc2ccc(CP(=O)(O)O)cc2CP(=O)(O)O)ccc1C`, the TGI in [2], in assay [3], in assay [4], in [5], in assay [6] and in assay [7] was above 100 µM in each case. Also, the TGI in assay [8] was above 100 µM.
`Clc1ccc(-c2cn3c(nc4ccccc43)c(/C=C/c3ccco3)n2)cc1`: the TGI in assay [2], in assay [3], in assay [4], in [5], in assay [6] and in assay [7] was above 100 µM in each case. Moreover, the figures for the TGI in [8] and in [9] were above 100 µM and 41.4 µM, respectively.
Turning to `COc1c(-c2nc3nc(N4CCN(C)CC4)ccc3[nH]2)cc(OC)c2c1nc(COC(C)=O)n2C`, the TGI in assay [1], in assay [2], in [3], in [4], in assay [5] and in [6] was above 100 µM in each case. For the same molecule, the TGI in assay [8] is above 100 µM.
On to `COC(=O)c1c(O)ccc2[nH]c3c(O)c4ccccc4cc3c12`, for which the TGI in assay [1] was above 100 µM; in [2], above 100 µM; in assay [4] it was 54.7 µM; in assay [5], above 100 µM; in assay [6], 56.2 µM; in assay [7] it was 63.5 µM. The figures for the TGI in assay [8] and in assay [9] were 64.3 µM and above 100 µM, respectively.
With `S=c1[nH]n2c(CCCCCCCCc3nnc4sc(=S)[nH]n34)nnc2s1`, the TGI in [1], in [2], in assay [4], in [6], in assay [7] and in assay [8] was above 100 µM in each case. For the same molecule, the TGI in [9] is above 100 µM.
Take `COc1ccccc1NC(=O)CC(=O)N1N=C(N2c3ccccc3Sc3ccccc32)CC1c1ccccc1` (stereo not given): the TGI in assay [1], in [2], in assay [4], in [5], in assay [6] and in [7] was above 100 µM throughout. The TGI in [8] and in assay [9] was above 100 µM each time.
Regarding `CCN(CC)CCN1C(=O)c2c(c3c4ccccc4[nH]c3c3ccc4ccccc4c23)C1=O`, the GI50 is 0.666 µM in assay [1]; 1.57 µM in assay [2]; 1.71 µM in assay [5]; 0.0836 µM in assay [6]; 1.08 µM in assay [7]; 1.69 µM in assay [8]. Further, the TGI came to 2.9 µM in [1]; 2.97 µM in [2]; 3.12 µM in assay [5]; 1.96 µM in assay [6]; 2.44 µM in assay [7]; 3.52 µM in assay [8].
Consider `Cc1sc2c(c1C)/C(=N\O)c1cccn1-2`, for which the TGI in assay [1], in [2], in [3], in assay [4], in [5] and in assay [6] was above 100 µM each time. The TGI in assay [7] and in assay [9] was above 100 µM in each case.
With `Nc1ncn2c(n1)nc1ccccc12`, the TGI in assay [1], in assay [2], in assay [4], in [5], in [6] and in assay [7] was above 100 µM in each case. Besides, the TGI in [8] and in assay [9] was above 100 µM throughout.
